Results on 2 molecules are retold here after patent publication US20210046002A1, “AMELIORATION OF AUTOIMMUNE UVEITIS THROUGH BLOCKADE OF CSF1R” (Massachusetts Eye and Ear Infirmary, priority 2018, published 2021).

In data set [1] the test system is EAU. The data set can be described thus: Active immunization EAU, clinical and histopathological score. It counts as in vivo, C57BL/6 mice.
Data set [2] relates to adherent retinal leukocytes. The data set can be described thus: Lectin labeling of adherent retinal leukocytes. It counts as in vivo, mice. To be noted: EAU day 10. How it is done:
The retinal vasculature and adherent leukocytes were imaged by perfusion labeling with fluorescein-isothiocyanate (FITC)-conjugated concanavalin A lectin (conA; Vector Laboratories, Burlingame, Calif.), as described previously with modifications. Briefly, after deep anesthesia, the chest cavity was opened and a 27-gauge cannula was introduced into the left ventricle. The mice were perfused through the left ventricle first using 5 ml of PBS, followed by fixation with 1% paraformaldehyde (5 ml), FITC-conjugated conA (20 μg/ml in PBS, 5 mL), and 5 ml of PBS. The eyes were then fixed in 4% PFA for 15 mins and the retinas were flatmounted. The total number of conA stained adherent leukocytes in the major retinal vessels (venules, arterioles, and collecting vessels) were counted under the direct observation with an epifluorescent microscopy (Axio Observer Z1; Carl Zeiss, Bayern, Germany).

For another data set, the system named is VCAM-1. The data set can be described thus: Western blot of retinal VCAM-1. It counts as in vivo, mice. To be noted: EAU day 14. As to the method: (§1) Whole retinas were homogenized with a hand homogenizer and briefly sonicated in M-PER® Mammalian Protein Extract Reagent containing Halt Phosphatase Inhibitor Cocktail (both Thermo Scientific), and then ultracentifuged for 15 min at 17,000 g to collect soluble proteins as supernatants. 20 μg of the samples were electrophoresed through 4-15% polyacrylamide gels (Bio-Rad, Hercules, Calif., USA), and transferred onto PVDF membranes. After blocking with 5% nonfat dried milk, the membranes were incubated overnight with a primary antibody at 4° C. The membranes were then incubated for 1 hour at room temperature with a HRP-labeled secondary antibody. The following antibodies were used: rabbit anti-ICAM1 (179707, abcam), rabbit anti-VCAM1 (134047, abcam), and rabbit anti-β-actin (4970; Cell Signaling Technology). Immunoreactive bands were visualized by ECL. The images were taken by ChemiDoc MP (Bio-Rad) and analyzed using Image Lab 4.6 (Bio-Rad).

The subject of a further data set is LN cells and SP cells. The data set can be described thus: Flow cytometric analysis of lymph nodes and spleens. The format is in vivo, mice. The text has this:
Cervical, axillary, and inguinal lymph nodes (LNs) were harvested from naive mice and EAU mice fed with a small molecule CSFR1 inhibitor or control diet. Single cell suspensions (1×10^6 cells/sample) were blocked with anti-mouse CD16/32 mAb (eBioscience, San Diego, Calif.) and stained with cell surface antibodies. Dead cells were stained with LIVE/DEAD™ fixable dead cell stain kit (blue or violet) (ThermoFisher). The following anti-mouse antibodies were used for staining: CD4-FITC (clone: GK1.5), CD25-PE (PC61.5), Foxp3-PE-Cy7 (FJK-6s), CD11c-FITC (N418), CD11b-PE (M1/70), CD45-APC (30-F11), IFN-γ-PE (XMG1.2), and IL-17A-APC (eBio17B7) (All purchased from eBioscience). CD3-Pacific blue (17A2) was purchase from BioLegend (San Diego, Calif.). For CD45/CD11b/CD11c detection, the cells were subjected for analysis without fixation. For regulatory T cell (CD3/CD4/CD25/Foxp3) staining, after staining with the cell surface markers, the cells were fixed and permeabilized with the Foxp3 staining buffer kit (eBioscience) and stained with Foxp3-PE-Cy7. For Th1 and Th17 detection (CD3/CD4/IFN-γ/IL-17), single cell suspensions were stimulated for 4 hours with 50 ng/mL phorbal myristate acetate (PMA) and 500 ng/ml ionomysin in culture media (10% FBS, RPMI1640, penicillin, streptomycin, β-mercaptoethanol) in the presence of GolgiPlug™ (BD Biosciences). The cells were stained with CD3-PB, CD4-FITC, and Live/Dead blue then fixed and permeabilized using an intracellular fixation and permeabilization buffer set (eBioscience). The cells were next stained with IFN-γ-PE and IL-17-APC. Flow cytometric data were acquired on a LSR II (BD Biosciences). Acquired data was analyzed using FlowJo 10.1 ( ).
In general terms: Flow cytometry measures light scatter and fluorescence of single cells or particles in a stream.

Data set [3] relates to EAU. Description: Adoptive transfer EAU. The format is in vivo, mice. How it is done: Adoptive transfer EAU was induced as previously described with brief modification. Briefly, donor mice were immunized as described above and the spleens and draining lymph nodes (LNs) were collected on day 14 post-immunization. Lymphocytes from spleens and draining LNs were culture in the presence of 10 μg/ml IRBP-p and 10 ng/ml IL-23 (R&D systems, Minneapolis, Minn.) for 72 hours in RPMI 1640 supplemented with 10% FBS (Gibco), 2 mM glutamine (Gibco), and 100 U/ml penicillin and 100 μg/ml streptomycin. The non-adherent cells in the entire suspension were transferred to new dishes on day one and two of culture. After 3 days, the activated lymphocytes were purified by gradient centrifugation on Histopaque 1083 and counted. The cells were injected i.p. in 0.2 ml of PBS into […] (5×10^7 cells/mouse). Fundus were observed using Micron IV (Phoenix, Pleasanton, Calif.) and clinical score was graded on a scale between 0-4 in half-point increments as described previously. For histological assessment, enucleated eyes were fixed in a buffer of 70% methanol and 30% acetic acid. The fixed tissues were embedded in paraffin and processed. Sections of 5 μm were cut and stained with H&E. The severity of EAU in each eye was scored on a scale between 0-4 in half-point increments, according to a semiquantitative system described previously.

For another data set, the system named is IRBP-p. Description: Delayed hypersensitivity (ear swelling) against IRBP-p. It counts as in vivo, C57BL/6 mice. To be noted: IRBP-immunized animals, day 21. As to the method: Ag-specific delayed hypersensitivity (DH) was measure as previously described. On day 19 after immunization, mice were injected intradermally with 10 μg/10 μl of IRBP-p suspended in PBS into the pinna of one ear. Ear swelling was measured after 24 and 48 h using a micrometer (Mitutoyo, Tokyo, Japan). DH was measured as the difference in ear thickness before and after challenge. Results were expressed as: specific ear swelling=(24-h measurement−0-h measurement) for test ear−(24-h measurement−0-h measurement) for control ear.

Data set [4] relates to lymph node and spleen cells. The data set can be described thus: Lymphocyte proliferation assay (modified MTT) of lymph node and spleen cells. It counts as cell-based, C57BL/6 mice. To be noted: IRBP-immunized animals, lymph nodes and spleens, day 14 and 21. How it is done: The draining LN and spleens were collected and the cells were suspended at 2×10^5 per 200 μL medium in 96-well flat-bottom plates. Triplicated cells were cultured in the presence of 10 μg/mL IRBP-p, 1 μg/mL Concanavalin A (Con A; Sigma-Aldrich), or medium alone. After incubation for three days, 100 μl of supernatant in the culture medium was collected. Cell proliferation during the last 4 hours of 72 hours cultures was measured by modified MTT assay using Cell Counting Kit-8 (Sigma-Aldrich).

Data set [5] relates to circulating systemic immune cells. To be noted: previous studies [31, 32]; cited from earlier work.
A further data set relates to ICAM-1. Description: Western blot of retinal ICAM-1. To be noted: EAU day 10; P<0.01. It counts as in vivo, mice. As to the method: as §1
(In general: A western blot detects proteins with antibodies after separation by electrophoresis.)

For the next data set, the system named is retinal microglia. Description: Retinal microglia depletion by chow containing CSF1R inhibitor. It counts as in vivo. To be noted: inhibitor-treated mice. The source says: The images of whole mount retinas were taken by a confocal microscopy (SP5 or SP8; Leica, Buffalo Grove, Ill., USA) or an epifluorescent microscopy (Axio Observer Z1; Carl Zeiss, Bayern, Germany). For microglial cell number counting, microglial cell bodies were manually counted based on the z-stack images. For microglial density evaluation, maximum intensity z-stack images were created and the images were processed with the smooth, the make binary, and the watershed tools. The area of particles was then calculated using the analyze particles tool, setting the size range to 5-1000. Amira 5 software (FEI, Hillsboro, Oreg., USA) was used to make 3D-reconstruction images.
Microglia depletion was performed using Cx3cr1^CreER×B6-iDTR (TG) mice or chow containing a small molecule CSFR1 inhibitor (Plexxikon Inc, Berkely, Calif., USA). To generate TG mice, Cx3cr1^CreER mice, which express Cre-ER fusion protein from endogenous CX3CR1 promoter enhance elements, were crossed with B6-iDTR mice, which contain a flox-STOP-flox diphtheria toxin receptor (DTR) in the ROSA26 locus. In this TG mice system, the Cre recombinase activation under the control of the Cx3cr1 promoter can be induced by tamoxifen, which leads to the surface expression of DTR on CX3CR1-expressing cells. […]

Data set [6] is described as follows: Lymph node and spleen weight in EAU. The format is in vivo, C57BL/6 mice. To be noted: day 21.
Data set [7] in a line: Behavior and health observation on supplemented diet. It counts as in vivo, mice. To be noted: chow containing 1200 p.p.m. As to the method:
Microglia depletion was performed using Cx3cr1^CreER×B6-iDTR (TG) mice or chow containing a small molecule CSFR1 inhibitor (Plexxikon Inc, Berkely, Calif., USA). To generate TG mice, Cx3cr1^CreER mice, which express Cre-ER fusion protein from endogenous CX3CR1 promoter enhance elements, were crossed with B6-iDTR mice, which contain a flox-STOP-flox diphtheria toxin receptor (DTR) in the ROSA26 locus. In this TG mice system, the Cre recombinase activation under the control of the Cx3cr1 promoter can be induced by tamoxifen, which leads to the surface expression of DTR on CX3CR1-expressing cells. The activation of Cre recombinase was induced by 5 consecutive days of tamoxifen administration via eye drops (10 μl/drop of 5 mg/ml in corn oil) three times a day at 6 weeks old. Then diphtheria toxin (DTX) (Sigma-Aldrich) was administered into the anterior chamber (a.c.) (25 ng in 1 μl of saline) to deplete CX3CR1-expressing. The control mice were given saline (a.c.). For microglia depletion using a small molecule CSFR1 inhibitor, mice were fed the control chow (AIN-76) or the chow containing 1200 p.p.m of the CSF1R inhibitor PLX 5622 one week prior to RD creation.

Data set [8] has as its system EAU. Description: EAU in Cx3cr1CreER x B6-iDTR mice given tamoxifen alone. It counts as in vivo. To be noted: day 21; for clinical EAU score: tamoxifen alone, systemically via i.p. injection.

Entries after “also recorded” stand apart in the source; their conditions may differ.

As to `COc1ncc(F)cc1CNc1ccc(Cc2c[nH]c3ncc(C)cc23)c(F)n1` [a small molecule CSFR1 inhibitor], the “clinical EAU score (development of EAU)” value in the data set with EAU [1] (diet 1200 ppm started day -7, through day 21, p<0.001) was “suppresses EAU; also recorded: completely suppressed”. Besides, the “clinical EAU score” value with EAU [1] (diet started day 0, until 28 days after EAU induction) is reported as “effectively suppressed”. Also, the “clinical EAU score” value in the data set on EAU [1] (diet started day 7) is recorded as “partially suppressed”. Also, in the data set with EAU [1] (diet started day 14), the “severity of EAU (clinical score)” value is reported as “comparable to that of control mice”. Besides, the “animals developing EAU” value in the data set with EAU [1] (diet started day -7, by day 28, mild EAU, n=7) is “Only one animal”. Also, the histological score entry in the data set on EAU [1] (diet started day -7, day 21, p<0.01) is listed as “suppressed EAU induction”. For the same molecule, in data set [2], the “levels of adherent cells vs naïve mice” value was “similar” and the “number of adherent cells vs control EAU mice” value is “significantly fewer”. Also, the “retinal VCAM-1 expression” value in the data set with VCAM-1 is given as “unaffected”. Further, in the data set on LN cells and SP cells (LNs and spleens, day 14), the “frequency of CD3+CD4+ T cells positive for IFN-γ+ or IL-17+” value is given as “does not suppress; also recorded: did not significantly change” and the “frequency of regulatory T cells (CD4+CD25+Foxp3+)” value is recorded as “did not increase”. The “CD11c+CD11b+ cells” value in the data set on LN cells and SP cells (both LNs and splenic cells, day 14 of EAU, vs control-fed) is given as “suppresses; also recorded: decreased”. Besides, in the data set on EAU [3] (inhibitor given to donor mice 7 days prior to EAU induction, recipients on regular diet), the “severity of EAU in recipients (uveitogenicity of donor lymphocytes)” value is reported as “did not affect the severity of EAU; also recorded: does not significantly suppress”. For the same molecule, in the data set on EAU [3] (inhibitor given to recipient mice 7 days prior to cell transfer), the “EAU response (clinical and histopathological score)” value is listed as “suppressed; also recorded: suppresses EAU”. For the same molecule, the “delayed hypersensitivity (DH) response, ear swelling” value in the data set with IRBP-p is on record as “did not affect”. The lymphocyte proliferation result in [4] is “did not affect”. In addition, in data set [5], the “effect on circulating systemic immune cells” value is recorded as “minimal effect”. The “retinal ICAM-1 protein expression vs naïve retina” value in the data set with ICAM-1 is on record as “significantly higher”. In addition, in the data set on retinal microglia, the “degree of microglia depletion” value is reported as 100%. Moreover, in data set [6], the “lymph node (LN) weight” value is given as “does not change; also recorded: neither parameter was affected” and the spleen weight entry is given as “does not change; also recorded: neither parameter was affected”. Further, in data set [7], the “behavioral or health problems” value is “No obvious behavioral or health problems”.

For `CC/C(=C(\c1ccccc1)c1ccc(OCCN(C)C)cc1)c1ccccc1` [tamoxifen], the “clinical EAU score” value is reported as “significantly suppressed” with EAU [8] and “suppresses EAU” in the data set with EAU [8] (listed as Tamoxifen). Also, the “EAU severity (clinical EAU score)” value in the data set with EAU [8] (tamoxifen topical via eye drops) is recorded as “did not significantly affect”.
